Measurements from patent publication US6573293B2, “Pyrrole substituted 2-indolinone protein kinase inhibitors” (Sugen, Inc., priority 2000, dated 2003).

Tests used:
HER-2 kinase = target: T1, HER-2 kinase (Homo sapiens, UniProt P04626); test: Cellular HER-2 kinase assay; format: cell-based; settings: read-out: Her2 Kinase IC50
T1 construct: Use EGFr/HER-2 chimera/3T3-C7 cell line for this assay; It is expressed in mouse NIH 3T3 clone C7 cells; P00533 (Epidermal growth factor receptor)

GST-Flk1 = target: T2, GST-Flk1 (Mus musculus, UniProt P35918); test: GST-FLK-1 bioassay (bio flkGST); format: biochemical
T2 construct: GST-Flk1cd purified from sf9 recombinant baculovirus transformation; host or cells: Sf9 (baculovirus)
T2 sequence (P35918 784-1345 limits assumed): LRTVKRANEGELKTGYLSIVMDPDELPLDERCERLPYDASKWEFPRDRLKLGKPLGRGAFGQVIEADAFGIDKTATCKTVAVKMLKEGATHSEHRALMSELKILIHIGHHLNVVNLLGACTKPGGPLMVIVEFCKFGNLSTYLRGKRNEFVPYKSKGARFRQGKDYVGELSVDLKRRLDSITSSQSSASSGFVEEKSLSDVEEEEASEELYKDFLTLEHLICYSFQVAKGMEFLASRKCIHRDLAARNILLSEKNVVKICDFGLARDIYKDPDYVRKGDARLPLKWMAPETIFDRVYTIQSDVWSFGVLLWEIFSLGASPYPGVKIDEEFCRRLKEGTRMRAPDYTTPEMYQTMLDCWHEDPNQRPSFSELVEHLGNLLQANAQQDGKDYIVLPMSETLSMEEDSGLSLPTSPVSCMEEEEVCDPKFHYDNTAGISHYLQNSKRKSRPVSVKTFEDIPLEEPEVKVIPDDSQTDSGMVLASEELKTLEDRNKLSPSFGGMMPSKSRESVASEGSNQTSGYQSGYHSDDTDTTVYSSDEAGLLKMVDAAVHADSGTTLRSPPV

[1] = target: T3, HA epitope-tagged full length pyk2 (FL.pyk2-HA) (Homo sapiens, UniProt Q14289); test: PYK2 bioassay; format: biochemical; settings: read-out: bio pyk2 IC50
T3 construct: host or cells: Sf9
T3 sequence (Q14289 whole entry): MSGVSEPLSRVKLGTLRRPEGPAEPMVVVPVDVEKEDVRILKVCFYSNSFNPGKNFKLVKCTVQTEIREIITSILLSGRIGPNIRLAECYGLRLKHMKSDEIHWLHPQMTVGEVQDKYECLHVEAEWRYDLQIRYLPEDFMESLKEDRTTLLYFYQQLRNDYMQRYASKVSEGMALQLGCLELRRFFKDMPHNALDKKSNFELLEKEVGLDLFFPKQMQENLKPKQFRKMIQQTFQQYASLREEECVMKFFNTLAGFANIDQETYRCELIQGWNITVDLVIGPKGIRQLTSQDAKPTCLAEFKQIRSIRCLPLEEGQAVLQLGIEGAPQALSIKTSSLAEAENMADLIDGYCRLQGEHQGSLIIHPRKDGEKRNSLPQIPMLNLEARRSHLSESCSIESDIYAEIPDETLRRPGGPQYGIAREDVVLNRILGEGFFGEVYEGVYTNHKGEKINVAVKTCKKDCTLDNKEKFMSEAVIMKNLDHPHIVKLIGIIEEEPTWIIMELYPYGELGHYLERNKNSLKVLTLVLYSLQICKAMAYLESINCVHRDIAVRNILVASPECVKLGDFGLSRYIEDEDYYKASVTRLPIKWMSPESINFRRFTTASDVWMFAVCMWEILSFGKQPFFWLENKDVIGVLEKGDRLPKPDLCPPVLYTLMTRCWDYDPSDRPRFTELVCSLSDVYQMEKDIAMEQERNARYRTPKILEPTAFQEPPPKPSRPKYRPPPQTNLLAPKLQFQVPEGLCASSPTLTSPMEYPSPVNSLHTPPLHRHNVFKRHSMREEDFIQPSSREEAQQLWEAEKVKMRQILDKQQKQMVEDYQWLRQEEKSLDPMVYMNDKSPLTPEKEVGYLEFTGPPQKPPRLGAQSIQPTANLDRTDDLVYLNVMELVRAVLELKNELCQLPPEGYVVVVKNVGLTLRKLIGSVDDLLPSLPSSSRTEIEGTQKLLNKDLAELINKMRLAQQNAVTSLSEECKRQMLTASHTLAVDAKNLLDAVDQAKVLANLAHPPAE

PDGFR-β = target: T4, PDGFR-β (Homo sapiens, UniProt P09619); test: PDGFR bioassay (bio PDGF); format: biochemical
T4 construct: host or cells: NIH 3T3
T4 sequence (P09619 33-1106): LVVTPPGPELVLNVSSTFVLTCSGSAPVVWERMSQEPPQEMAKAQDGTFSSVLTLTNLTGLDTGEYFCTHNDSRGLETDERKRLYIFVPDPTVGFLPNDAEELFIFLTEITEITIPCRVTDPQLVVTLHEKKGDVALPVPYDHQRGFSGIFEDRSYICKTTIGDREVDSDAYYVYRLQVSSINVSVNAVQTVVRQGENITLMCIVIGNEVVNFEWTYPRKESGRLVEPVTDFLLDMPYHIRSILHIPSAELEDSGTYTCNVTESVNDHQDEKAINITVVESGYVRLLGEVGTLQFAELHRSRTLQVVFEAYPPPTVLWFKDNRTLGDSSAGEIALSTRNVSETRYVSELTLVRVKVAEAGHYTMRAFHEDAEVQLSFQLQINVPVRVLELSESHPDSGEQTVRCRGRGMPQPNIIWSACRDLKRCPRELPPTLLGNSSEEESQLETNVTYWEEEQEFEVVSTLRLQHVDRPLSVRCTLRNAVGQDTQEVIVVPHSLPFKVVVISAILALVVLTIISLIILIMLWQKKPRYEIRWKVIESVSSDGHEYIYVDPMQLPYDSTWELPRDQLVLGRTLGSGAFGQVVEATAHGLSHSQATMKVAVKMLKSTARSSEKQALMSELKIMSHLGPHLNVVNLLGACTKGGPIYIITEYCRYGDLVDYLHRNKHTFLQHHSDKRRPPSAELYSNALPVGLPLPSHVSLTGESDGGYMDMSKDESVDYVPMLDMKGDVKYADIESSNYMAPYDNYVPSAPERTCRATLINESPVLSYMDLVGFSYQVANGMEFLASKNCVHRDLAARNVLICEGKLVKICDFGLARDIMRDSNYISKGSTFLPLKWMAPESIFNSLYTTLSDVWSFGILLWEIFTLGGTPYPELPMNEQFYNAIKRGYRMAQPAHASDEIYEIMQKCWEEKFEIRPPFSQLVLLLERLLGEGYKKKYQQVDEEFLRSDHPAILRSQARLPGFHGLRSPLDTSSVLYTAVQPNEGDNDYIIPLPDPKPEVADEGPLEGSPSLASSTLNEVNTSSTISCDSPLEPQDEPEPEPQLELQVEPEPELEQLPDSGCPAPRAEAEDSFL

EGFR [2] = target: T5, EGFR (Homo sapiens, UniProt P00533); test: cell EGF assay; format: cell-based
T5 construct: A431 cell lysate (SUGEN, Inc.); host or cells: A431
T5 sequence (P00533 25-1210): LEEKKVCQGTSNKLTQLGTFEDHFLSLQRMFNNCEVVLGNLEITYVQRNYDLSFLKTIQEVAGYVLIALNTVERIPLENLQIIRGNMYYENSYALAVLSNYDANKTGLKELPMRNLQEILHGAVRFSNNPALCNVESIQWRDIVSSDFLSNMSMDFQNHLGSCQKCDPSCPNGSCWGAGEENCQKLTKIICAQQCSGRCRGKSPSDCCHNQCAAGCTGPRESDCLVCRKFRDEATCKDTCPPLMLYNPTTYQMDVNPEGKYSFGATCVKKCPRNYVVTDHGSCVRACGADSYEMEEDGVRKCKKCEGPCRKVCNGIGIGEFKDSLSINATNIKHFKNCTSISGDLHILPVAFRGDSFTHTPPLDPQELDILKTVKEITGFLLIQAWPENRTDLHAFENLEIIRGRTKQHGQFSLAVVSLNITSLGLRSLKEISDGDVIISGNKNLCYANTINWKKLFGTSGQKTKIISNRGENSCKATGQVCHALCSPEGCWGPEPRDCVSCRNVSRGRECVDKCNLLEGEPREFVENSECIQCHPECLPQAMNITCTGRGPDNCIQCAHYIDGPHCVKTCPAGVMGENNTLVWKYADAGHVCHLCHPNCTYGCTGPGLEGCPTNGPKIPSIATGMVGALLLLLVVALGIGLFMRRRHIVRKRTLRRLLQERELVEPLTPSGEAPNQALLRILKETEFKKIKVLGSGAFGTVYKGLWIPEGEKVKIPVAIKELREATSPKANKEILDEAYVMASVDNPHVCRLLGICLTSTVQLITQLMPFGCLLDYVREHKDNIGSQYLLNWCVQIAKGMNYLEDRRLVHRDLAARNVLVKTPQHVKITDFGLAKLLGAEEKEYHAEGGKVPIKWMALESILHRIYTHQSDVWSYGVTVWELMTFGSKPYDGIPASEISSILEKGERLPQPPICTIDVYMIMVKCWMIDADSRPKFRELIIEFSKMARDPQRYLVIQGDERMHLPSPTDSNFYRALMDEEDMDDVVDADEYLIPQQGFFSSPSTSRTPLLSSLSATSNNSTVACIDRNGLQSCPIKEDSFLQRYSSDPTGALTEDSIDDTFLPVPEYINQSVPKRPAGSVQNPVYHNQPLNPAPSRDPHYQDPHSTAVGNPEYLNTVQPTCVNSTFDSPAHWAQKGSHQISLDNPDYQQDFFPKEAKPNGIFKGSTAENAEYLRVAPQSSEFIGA
Experimental: Several of the assays described herein are performed in an ELISA (Enzyme-Linked Immunosorbent Sandwich Assay) format (Voller, et al., 1980, “Enzyme-Linked Immunosorbent Assay,” Manual of Clinical Immunology, 2d ed., Rose and Friedman, Am. Soc. Of Microbiology, Washington, D.C., pp. 359-371). The general procedure is as follows: a compound is introduced to cells expressing the test kinase, either naturally or recombinantly, for a selected period of time after which, if the test kinase is a receptor, a ligand known to activate the receptor is added. The cells are lysed and the lysate is transferred to the wells of an ELISA plate previously coated with a specific antibody recognizing the substrate of the enzymatic phosphorylation reaction. Non-substrate components of the cell lysate are washed away and the amount of phosphorylation on the substrate is detected with an antibody specifically recognizing phosphotyrosine compared with control cells that were not contacted with a test compound.

GST-FGFR1 = GST-FGFR1 (Homo sapiens, UniProt P11362); test: FGFR1 bioassay (bio PGFR1); format: biochemical
Chain of GST-FGFR1 (P11362 22-822): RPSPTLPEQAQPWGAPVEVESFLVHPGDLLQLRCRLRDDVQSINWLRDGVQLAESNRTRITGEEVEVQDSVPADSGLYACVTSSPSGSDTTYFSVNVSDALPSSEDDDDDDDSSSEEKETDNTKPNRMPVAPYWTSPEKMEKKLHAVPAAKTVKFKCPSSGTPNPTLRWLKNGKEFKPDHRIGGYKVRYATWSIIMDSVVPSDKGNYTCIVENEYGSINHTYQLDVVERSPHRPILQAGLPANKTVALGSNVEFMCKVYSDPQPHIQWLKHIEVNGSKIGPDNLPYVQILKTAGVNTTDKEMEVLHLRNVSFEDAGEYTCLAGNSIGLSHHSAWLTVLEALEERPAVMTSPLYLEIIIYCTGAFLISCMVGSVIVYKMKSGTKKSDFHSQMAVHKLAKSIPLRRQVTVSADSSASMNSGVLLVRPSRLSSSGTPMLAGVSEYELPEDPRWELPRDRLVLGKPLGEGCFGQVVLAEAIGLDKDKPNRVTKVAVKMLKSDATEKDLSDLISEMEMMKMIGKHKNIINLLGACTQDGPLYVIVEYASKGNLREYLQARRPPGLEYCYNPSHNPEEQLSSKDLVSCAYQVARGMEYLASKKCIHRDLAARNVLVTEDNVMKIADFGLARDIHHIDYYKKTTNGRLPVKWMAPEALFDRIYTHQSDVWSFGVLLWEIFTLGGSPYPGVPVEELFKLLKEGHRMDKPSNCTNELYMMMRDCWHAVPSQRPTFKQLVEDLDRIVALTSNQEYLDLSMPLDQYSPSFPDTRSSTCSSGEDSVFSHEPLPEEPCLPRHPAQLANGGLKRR

EGFR [3] = target: T5, EGFR; test: EGFR bioassay (bio EGF); format: biochemical

T1 sequence (P04626 720-987 limits assumed): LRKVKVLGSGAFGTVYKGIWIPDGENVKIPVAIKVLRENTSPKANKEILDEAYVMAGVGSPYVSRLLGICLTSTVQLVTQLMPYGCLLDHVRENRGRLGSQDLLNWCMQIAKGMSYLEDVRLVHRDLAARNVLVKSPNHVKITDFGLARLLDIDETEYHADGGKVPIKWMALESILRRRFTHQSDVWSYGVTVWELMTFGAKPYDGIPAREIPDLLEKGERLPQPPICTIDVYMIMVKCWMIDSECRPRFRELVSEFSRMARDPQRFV

| Structure (SMILES) | IC50 (HER-2 kinase) [µM] | IC50 (GST-Flk1) [µM] | IC50 [1] [µM] | IC50 (PDGFR-β) [µM] | IC50 (EGFR [2]) [µM] | IC50 (GST-FGFR1) [µM] | IC50 (EGFR [3]) [µM] |
| --- | --- | --- | --- | --- | --- | --- | --- |
| CCOC(=O)c1cc(C)c(/C=C2\C(=O)Nc3ccc(Cl)cc32)[nH]1 [Example 4, 5-(5-Chloro-2-oxo-1,2-dihydroindol-3-ylidenemethyl)-4-methyl-1H-pyrrole-2-carboxlyc acid ethyl ester] | > 100 | 3.57 |  | > 100 | > 100 | > 20 | > 100 |
| CCN(CC)CCNC(=O)c1c(C)[nH]c(/C=C2\C(=O)Nc3ccc(S(=O)(=O)N(C)C)cc32)c1C [Example 87, 5-(5-Dimethylsulfamoyl-2-oxo-1,2-dihydroindol-3-ylidenemethyl)-2,4-dimethyl-1H-pyrrole-3-carboxylic acid (2-diethylaminoethyl)amide] | 9.1 | 3.27 | 0.17 | 6.46 |  | 7.56 |  |
| CCN(CC)CCNC(=O)c1c(C)[nH]c(/C=C2\C(=O)Nc3ccc(S(=O)(=O)Nc4cccc(Cl)c4)cc32)c1C [Example 88, 5-[5-(3-Chloro-phenylsulfamoyl)-2-oxo-1,2-dihydroindol-3-ylidenemethyl]-2,4-dimethyl-1H-pyrrole-3-carboxylic acid (2-diethylaminoethyl)amide] | > 100 | 0.35 | 0.09 | 8.06 |  | 1.18 | 2.36 |
| Cc1[nH]c(/C=C2\C(=O)Nc3ccc(S(=O)(=O)Nc4ccccc4)cc32)c(C)c1C(=O)N1CCN(C)CC1 [Example 86, 3-[3,5-Dimethyl-4-(4-methyl-piperazine-1-carbonyl)-1H-pyrrol-2-ylmethylene]-2-oxo-2,3-dihydro-1H-indole-5-sulfonic acid phenylamide] |  | 1.45 | 3.58 | 19.6 |  | 1.3 | 41.8 |
| Cc1[nH]c(/C=C2\C(=O)Nc3ccc(S(=O)(=O)N(C)C)cc32)c(C)c1C(=O)NCCN1CCCC1 [Example 82, 5-(5-Dimethylsulfamoyl-2-oxo-1,2-dihydroindol-3-ylidenemethyl)-2,4-dimethyl-1H-pyrrole-3-carboxylic acid (2-pyrrolidin-1-yl-ethyl)amide] |  | 2.03 | 0.31 | 6.88 |  | 7.69 |  |
| CCN(CC)CCNC(=O)c1ccc(/C=C2\C(=O)Nc3cc(-c4ccccc4)ccc32)[nH]1 [Example 9, 5-(2-Oxo-6-phenyl-1,2-dihydroindol-3-ylidenemethyl)-1H-pyrrole-2-carboxylic acid (2-diethylaminoethyl)amide] | 16.4 | 0.96 |  | > 100 | > 100 |  | > 100 |
| CCN(CC)CCCNC(=O)c1c(C)[nH]c(/C=C2\C(=O)Nc3ccc(Br)cc32)c1-c1ccccc1 [Example 47, 5-(5-Bromo-2-oxo-1,2-dihydroindol-3-ylidenemethyl)-2-methyl-4-phenyl-1H-pyrrole-3-carboxylic acid (3-diethylaminopropyl)amide] | 8.4 | 0.08 | 1.05 | 0.06 | 41.5 | 1.56 | 11.4 |
| Cc1[nH]c(/C=C2\C(=O)Nc3ccc(-c4ccccc4)cc32)c(C)c1C(=O)NCCN1CCCC1 [Example 57, 2,4-Dimethyl-5-(2-oxo-5-phenyl-1,2-dihydroindol-3-ylidenemethyl)-1H-pyrrole-3-carboxylic acid (2-pyrrolidin-1-yl-ethyl)amide] | 6.94 | 0.06 |  | 7.98 | 9.97 |  | > 100 |
| CCN(CC)CCNC(=O)c1ccc(/C=C2\C(=O)Nc3ccc(Br)cc32)[nH]1 [Example 8, 5-(5-Bromo-2-oxo-1,2-dihydroindol-3-ylidenemethyl)-1H-pyrrole-2-carboxylic acid (2-diethylaminoethyl)amide] | 5.5 | 12.1 |  | > 100 | 20.1 |  | 51.3 |
| CCN(CC)CCCNC(=O)c1cc(C)c(/C=C2\C(=O)Nc3ccc(Br)cc32)[nH]1 [Example 7, 5-(5-Bromo-2-oxo-1,2-dihydroindol-3-ylidenemethyl)-4-methyl-1H-pyrrole-2-carboxylic acid (3-diethylaminopropyl)amide] | 4.24 | 7.74 |  | > 100 | 9.8 |  | 5.07 |

Continued by falling IC50 (GST-Flk1), values first:

| IC50 (HER-2 kinase) [µM] | IC50 (GST-Flk1) [µM] | IC50 [1] [µM] | IC50 (PDGFR-β) [µM] | IC50 (EGFR [2]) [µM] | IC50 (GST-FGFR1) [µM] | IC50 (EGFR [3]) [µM] | Structure (SMILES) |
| --- | --- | --- | --- | --- | --- | --- | --- |
|  | 57.7 | > 100 | > 100 | > 100 | 15.2 | > 100 | Cc1cc(C(=O)O)[nH]c1/C=C1\C(=O)Nc2ccccc21 [Example 1, 4-Methyl-5-(2-oxo-1,2-dihydroindol-3-ylidenemethyl)-1H-pyrrole-2-carboxylic acid] |
|  | 9.85 | > 100 | > 100 | > 100 | 9.62 | > 100 | COC(=O)c1cc(C)c(/C=C2\C(=O)Nc3ccccc32)[nH]1 [Example 3, 4-Methyl-5-(2-oxo-1,2-dihydroindol-3-ylidenemethyl)-1H-pyrrole-2-carboxylic acid methyl ester] |
| > 100 | 8.3 |  | > 100 | > 100 | 16.1 | > 100 | Cc1cc(C(=O)O)[nH]c1/C=C1\C(=O)Nc2ccc(Cl)cc21 [Example 5, 5-(5-Chloro-2-oxo-1,2-dihydroindol-3-ylidenemethyl)-4-methyl-1H-pyrrole-2-carboxylic acid] |
| 3.53 | 3.38 |  | 4.69 | 14.5 |  | 3.67 | CCN(CC)CCNC(=O)c1c(C(C)C)[nH]c(/C=C2\C(=O)Nc3ccc(Br)cc32)c1-c1ccccc1 [Example 39, 5-(5-Bromo-2-oxo-1,2-dihydroindol-3-ylidenemethyl)-2-isopropyl-4-phenyl-1H-pyrrole-3-carboxylic acid (2-diethylaminoethyl)amide] |
| 5.86 | 1.38 | 0.006 | 12.5 |  |  | 67.2 | Cc1[nH]c(/C=C2\C(=O)Nc3ccc(S(=O)(=O)Nc4cccnc4)cc32)c(C)c1C(=O)NCCN1CCCC1 [Example 84, 2,4-Dimethyl-5-[2-oxo-5-(pyridin-3-ylsulfamoyl)-1,2-dihydroindol-3-ylidenemethyl]-1H-pyrrole-3-carboxylic acid (2-pyrrolidin-1-yl-ethyl)amide] |
| 2.56 | 0.39 |  | 24.8 | 19.8 |  | 31.4 | CCN(CC)CCCNC(=O)c1c(C)[nH]c(/C=C2\C(=O)Nc3ccc(-c4ccccc4)cc32)c1C [Example 67, 2,4-Dimethyl-5-(2-oxo-5-phenyl-1,2-dihydroindol-3-ylidenemethyl)-1H-pyrrole-3-carboxylic acid (3-diethylaminopropyl)amide] |
| 86.9 | 0.34 | 0.008 | 9.46 |  | 0.41 | 2.18 | Cc1[nH]c(/C=C2\C(=O)Nc3ccc(S(=O)(=O)Nc4cccc(Cl)c4)cc32)c(C)c1C(=O)NCCN1CCCC1 [Example 83, 5-[5-(3-Chloro-phenylsulfamoyl)-2-oxo-1,2-dihydroindol-3-ylidenemethyl]-2,4-dimethyl-1H-pyrrole-3-carboxylic acid (2-pyrrolidin-1-yl-ethyl)amide] |
| 1.4 | 0.22 |  | 3.06 | 9.84 |  | 10.8 | CCN(CC)CCCNC(=O)c1c(C(C)C)[nH]c(/C=C2\C(=O)Nc3ccc(Br)cc32)c1-c1ccccc1 [Example 37, 5-(5-Bromo-2-oxo-1,2-dihydroindol-3-ylidenemethyl)-2-isopropyl-4-phenyl-1H-pyrrole-3-carboxylic acid (3-diethylaminopropyl)amide] |
| 3.76 | 0.2 |  | 2.59 |  | 0.8 | > 100 | Cc1[nH]c(/C=C2\C(=O)Nc3cccc(CCO)c32)c(C)c1C(=O)N1CCN(C)CC1 [Example 85, 3-[3,5-Dimethyl-4-(4-methyl-piperazine-1-carbonyl)-1H-pyrrol-2-ylmethylene]-4-(2-hydroxy-ethyl)-1,3-dihydroindol-2-one] |
| 7.93 | 0.006 | 0.09 | < 0.78 | 21.6 | 0.3 | 17.9 | Cc1[nH]c(/C=C2\C(=O)Nc3ccc(Br)cc32)c(C)c1C(=O)NCCN(C)C [Example 48, 5-(5-Bromo-2-oxo-1,2-dihydroindol-3-ylidenemethyl)-2,4-dimethyl-1H-pyrrole-3-carboxylic acid (2-dimethylamino-ethyl)amide] |
